Key:
Assay in all cases: relative viability (nuclei count vs DMSO), 5 days (fraction); higher = more cells survive
[1] = compound: C1=CC=C(C(=C1)C2=CC=C(C=C2)C3=CSC4=C3C(=C(C(=O)N4)C#N)O)O + Cc1nc(NC(=O)N2CCC[C@H]2C(N)=O)sc1-c1ccnc(C(C)(C)C(F)(F)F)c1 [Alpelisib] (partner 2 µM)
How it was run: (§1)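 Five library-drug doses in √10 steps were combined with a fixed anchor-drug dose, or a single drug was given alone, by pin tool to lung cancer cell lines in 1536-well plates the day after seeding. Nuclei were stained and counted after 5 days. Relative viability is the nuclei count in treated wells over that in vehicle wells, taken as the median of duplicate plates.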

Ricolinostat + Alpelisib = compound: O=C(CCCCCCNC(=O)c1cnc(N(c2ccccc2)c2ccccc2)nc1)NO [Ricolinostat] + Cc1nc(NC(=O)N2CCC[C@H]2C(N)=O)sc1-c1ccnc(C(C)(C)C(F)(F)F)c1 [Alpelisib] (partner 2 µM)
How it was run: as §1

TGX 221 + Alpelisib = compound: CC1=CN2C(=O)C=C(N=C2C(=C1)C(C)NC3=CC=CC=C3)N4CCOCC4 [TGX 221] + Cc1nc(NC(=O)N2CCC[C@H]2C(N)=O)sc1-c1ccnc(C(C)(C)C(F)(F)F)c1 [Alpelisib] (partner 2 µM)
How it was run: as §1

TGX 221 + Crizotinib = compound: CC1=CN2C(=O)C=C(N=C2C(=C1)C(C)NC3=CC=CC=C3)N4CCOCC4 [TGX 221] + C[C@@H](Oc1cc(-c2cnn(C3CCNCC3)c2)cnc1N)c1c(Cl)ccc(F)c1Cl [Crizotinib] (partner 1 µM)
How it was run: as §1

Cell Line | relative viability ([1]; first compound 0.08 µM) | relative viability ([1]; first compound 0.253 µM) | relative viability ([1]; first compound 0.8 µM) | relative viability ([1]; first compound 2.53 µM) | relative viability ([1]; first compound 8 µM) | relative viability (Ricolinostat + Alpelisib; first compound 0.08 µM) | relative viability (Ricolinostat + Alpelisib; first compound 0.253 µM) | relative viability (Ricolinostat + Alpelisib; first compound 0.8 µM) | relative viability (Ricolinostat + Alpelisib; first compound 2.53 µM) | relative viability (TGX 221 + Alpelisib; first compound 0.08 µM) | relative viability (TGX 221 + Alpelisib; first compound 0.253 µM) | relative viability (TGX 221 + Alpelisib; first compound 0.8 µM) | relative viability (TGX 221 + Alpelisib; first compound 2.53 µM) | relative viability (TGX 221 + Alpelisib; first compound 8 µM) | relative viability (TGX 221 + Crizotinib; first compound 0.08 µM) | relative viability (TGX 221 + Crizotinib; first compound 0.253 µM) | relative viability (TGX 221 + Crizotinib; first compound 0.8 µM) | relative viability (TGX 221 + Crizotinib; first compound 2.53 µM) | relative viability (TGX 221 + Crizotinib; first compound 8 µM)
NCI-H2087 | 1.07 | 1.27 | 1.16 | 1.11 | 1.13 | 1.14 | 1.21 | 0.949 | 0.999 | 0.978 | 1.13 | 1.13 | 1.12 | 1.31 | 1.02 | 1.01 | 0.802 | 0.979 | 1.19
A-427 | 1.08 | 1.13 | 1.13 | 1.11 | 1.12 | 0.927 | 1.07 | 1.09 | 0.983 | 1.04 | 1.11 | 1.14 | 0.976 | 1.08 | 0.958 | 0.924 | 0.879 | 0.776 | 0.824
NCI-H460 | – | 0.67 | 0.596 | 0.588 | 0.387 | 0.321 | 0.461 | 0.421 | 0.402 | 0.386 | 0.295 | 0.274 | 0.167 | 0.137 | 0.754 | 0.811 | 1.05 | 0.896 | 0.64
EBC-1 | 0.885 | 0.877 | 0.721 | 0.865 | 0.712 | 0.57 | 0.737 | 0.699 | 0.414 | 0.738 | 0.526 | 0.426 | 0.321 | 0.32 | 0.203 | 0.183 | 0.211 | 0.178 | 0.183
NCI-H23 | 0.652 | 0.695 | 0.833 | 0.719 | 0.421 | 0.56 | 0.644 | 0.882 | 0.703 | 0.66 | 0.572 | 0.471 | 0.606 | 0.574 | 0.58 | 0.391 | 0.518 | 0.465 | 0.454
NCI-H1437 | 0.713 | 1.16 | 0.994 | 1.09 | 0.883 | 0.888 | 1.03 | 0.907 | 0.722 | 0.892 | 0.851 | 0.889 | 0.66 | 0.487 | 0.931 | 0.908 | 0.876 | 0.861 | 0.819
EKVX | 0.786 | 0.995 | 0.838 | 0.953 | 0.851 | – | 0.883 | 0.882 | 0.942 | 0.77 | 0.716 | 0.648 | 0.5 | 0.477 | 0.85 | 0.832 | 0.843 | 0.927 | 0.773
NCI-H1299 | 1.01 | 1.08 | 1.14 | 1.08 | 0.699 | 1.06 | 0.99 | 0.988 | 0.944 | 0.991 | 1.07 | 1.12 | 1.14 | 1.17 | 0.933 | 0.942 | 0.949 | 0.96 | 0.904
NCI-H1650 | – | – | – | – | – | – | – | – | – | – | – | – | – | – | 0.828 | 0.857 | 0.875 | 0.956 | 0.545
